Source: BindingDB's records for doi:10.1016/j.bioorg.2015.09.001 (Universiti Teknologi Mara (Uitm), 2015)

Target: Alpha-glucosidase MAL12 (Saccharomyces cerevisiae (strain ATCC 204508 / S288c), UniProt P53341)
Assay: α-Glucosidase Inhibitory Activity
Protocol: The 135 µL of 50 mM phosphate saline buffer pH (6.8) was added in the 96-well plate and 20 µL of test sample with 70% DMSO added into the wells. The solution of Enzyme 20 µL was added into the wells, and incubated the plate for 15 min. After incubation pre-read of the plate was taken by the spectra max. Afterward 25 µL of the substrate (pNPG) was added and a reading was taken on spectra max at 400 nm for 30 min. The normal reading is taken and the percent inhibition was calculated.

Sequence of Alpha-glucosidase MAL12 (P53341 whole entry): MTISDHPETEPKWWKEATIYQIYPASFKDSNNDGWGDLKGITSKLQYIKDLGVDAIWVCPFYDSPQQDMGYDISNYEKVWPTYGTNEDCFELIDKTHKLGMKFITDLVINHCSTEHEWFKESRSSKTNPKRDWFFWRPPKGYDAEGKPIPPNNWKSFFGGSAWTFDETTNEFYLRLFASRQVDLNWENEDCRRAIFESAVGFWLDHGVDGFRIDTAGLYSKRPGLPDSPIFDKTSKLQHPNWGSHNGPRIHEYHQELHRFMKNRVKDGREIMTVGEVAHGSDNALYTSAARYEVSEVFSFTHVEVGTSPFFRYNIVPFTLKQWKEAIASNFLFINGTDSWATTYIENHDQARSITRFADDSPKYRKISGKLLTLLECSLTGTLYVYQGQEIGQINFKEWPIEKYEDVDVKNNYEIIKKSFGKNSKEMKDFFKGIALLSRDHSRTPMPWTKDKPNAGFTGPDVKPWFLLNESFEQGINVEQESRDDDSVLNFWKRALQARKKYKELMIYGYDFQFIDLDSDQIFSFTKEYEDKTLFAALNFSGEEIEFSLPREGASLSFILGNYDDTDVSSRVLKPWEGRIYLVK

Point of comparison: `O=C(N/N=C/c1ccccc1O)c1cc2ccccc2[nH]1` [(E)-N'-(2-hydroxybenzylidene)-1H-indole-2-carbohydrazide (10)], IC50 42.6 µM. Against it:
- O=C(N/N=C/c1cccc(O)c1O)c1cc2ccccc2[nH]1 [(E)-N'-(2,3-dihydroxybenzylidene)-1H-indole-2-carbohydrazide (6)] — 2-fold higher, 86.5 µM
- O=C(N/N=C/c1c(O)cc(O)cc1O)c1cc2ccccc2[nH]1 [(E)-N'-(2,4,6-trihydroxybenzylidene)-1H-indole-2-carbohydrazide (2)] — within 1.5-fold, 49.2 µM
- O=C(N/N=C/c1cc(O)ccc1O)c1cc2ccccc2[nH]1 [(E)-N'-(2,5-dihydroxybenzylidene)-1H-indole-2-carbohydrazide (3)] — 3.4-fold higher, 144 µM
- COc1ccc(O)c(/C=N/NC(=O)c2cc3ccccc3[nH]2)c1 [(E)-N'-(2-hydroxy-5-methoxybenzylidene)-1H-indole-2-carbohydrazide (13)] — within 1.5-fold, 49.2 µM
- O=C(N/N=C/c1cc(O)c(O)c(O)c1)c1cc2ccccc2[nH]1 [(E)-N'-(3,4,5-trihydroxybenzylidene)-1H-indole-2-carbohydrazide (1)] — 19-fold lower, 2.3 µM
- O=C(N/N=C/c1ccc(O)c(O)c1)c1cc2ccccc2[nH]1 [(E)-N'-(3,4-dihydroxybenzylidene)-1H-indole-2-carbohydrazide (4)] — within 1.5-fold, 41 µM
- O=C(N/N=C/c1cc(O)cc(O)c1)c1cc2ccccc2[nH]1 [(E)-N'-(3,5-dihydroxybenzylidene)-1H-indole-2-carbohydrazide (7)] — 5.3-fold higher, 226 µM
- O=C(N/N=C/c1ccc(F)c(Br)c1)c1cc2ccccc2[nH]1 [(E)-N'-(3-Bromo-4-fluorobenzylidene)-1H-indole-2-carbohydrazide (19)] — 1.6-fold lower, 26.6 µM
- COc1ccc(/C=N/NC(=O)c2cc3ccccc3[nH]2)c(I)c1O [(E)-N'-(3-hydroxy-2-iodo-4-methoxybenzylidene)-1H-indole-2-carbohydrazide (14)] — within 1.5-fold, 54.6 µM
- COc1ccc(/C=N/NC(=O)c2cc3ccccc3[nH]2)cc1O [(E)-N'-(3-hydroxy-4-methoxybenzylidene)-1H-indole-2-carbohydrazide (11)] — 4.5-fold higher, 191 µM
- O=C(N/N=C/c1ccc(Cl)cc1)c1cc2ccccc2[nH]1 [(E)-N'-(4-Chlorobenzylidene)-1H-indole-2-carbohydrazide (27)] — within 1.5-fold, 32.1 µM
- COc1cc(/C=N/NC(=O)c2cc3ccccc3[nH]2)ccc1O [(E)-N'-(4-hydroxy-3-methoxybenzylidene)-1H-indole-2-carbohydrazide (8)] — 3.6-fold higher, 155 µM
- O=C(N/N=C/c1ccc(O)cc1)c1cc2ccccc2[nH]1 [(E)-N'-(4-hydroxybenzylidene)-1H-indole-2-carbohydrazide (9)] — 4.8-fold higher, 206 µM
